{"source": "patent US20250163057A1", "about": "“DCN-1 MODULATING COMPOUNDS AND METHODS OF USE THEREOF” (Cellarity, Inc., priority 2023, published 2025)", "key": {"[1]": {"system": "Cullin-3 (CUL3) neddylation", "experiment": "AlphaLISA assay for Cullin-3 (CUL3) neddylation in TF 1 cells", "format": "cell-based", "settings": "Homo sapiens, 3 hours treatment", "how_it_was_run": "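TF 1 cells in unsupplemented IMDM treated with compound concentrations for 3 h, then lysed. CUL3 neddylation detected by AlphaLISA (biotinylated anti-NEDD8, anti-CUL3 acceptor beads overnight, streptavidin donor beads 1 h); normalized to vehicle (0%) and 1 μM DI-1548 (100%), IC50 from Hill fits.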"}, "[2]": {"target": "DCN1 (DCUND1) protein PONY domain (Homo sapiens (Human), UniProt Q96GG9)", "sequence (Q96GG9 60-248)": "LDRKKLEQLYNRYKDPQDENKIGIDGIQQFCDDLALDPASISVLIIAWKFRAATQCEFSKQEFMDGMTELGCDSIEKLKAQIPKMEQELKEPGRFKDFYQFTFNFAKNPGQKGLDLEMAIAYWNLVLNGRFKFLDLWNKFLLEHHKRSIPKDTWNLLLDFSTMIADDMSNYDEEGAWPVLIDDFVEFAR", "experiment": "TR-FRET assay, DCN1 binding with FAM-labeled probe", "how_it_was_run": "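Binding was read as the TR-FRET ratio between a FAM-tagged inhibitor probe and Tb-labeled biotinylated E. coli-expressed DCN1 PONY domain, measured 1, 5 and 24 h after compound addition. The two setups used 5 nM protein/20 nM FAM-probe or 0.31 nM protein/900 nM total probe (100 nM labeled), in TritonX buffer with 200 mM NaCl.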"}, "[3]": {"settings": "24 hr after treatment with compound, read-out: TR FRET IC50 24 hr"}, "[4]": {"settings": "TR FRET IC50 1 hr (nM), 1 hr after treatment with compound"}, "[5]": {"settings": "read-out: TR FRET IC50 1 hr, 1 hr after treatment with compound"}}, "note": "Where two headings read alike, the source gives them in different places.", "data": [{"smiles": "CCN1C(=O)[C@@H](NC(=O)c2ccn(C(F)F)n2)[C@@H](C2CC2)c2c(C(=O)N3[C@H](C#N)C[C@H]4C[C@H]43)nn(C3CCOCC3)c21", "note": "[Compound I-432]", "values": [{"measurement": "IC50", "setting": "[1]; TF-1, 3 h", "value": "100 to 1000", "unit": "nM"}, {"measurement": "IC50", "setting": "[2]; [3]", "value": "≤ 200", "unit": "nM"}, {"measurement": "IC50", "setting": "[2]; [4]", "value": "200 to 1000", "unit": "nM"}]}, {"smiles": "CCN1C(=O)[C@@H](NC(=O)c2cccc(C(F)(F)F)c2)[C@@H](C2CC2)c2c(C(=O)N3CCC=C3C#N)nn(C3CCOCC3)c21", "note": "[Compound I-437]", "values": [{"measurement": "IC50", "setting": "[1]; TF-1, 3 h", "value": "> 1000", "unit": "nM"}, {"measurement": "IC50", "setting": "[2]; [3]", "value": "≤ 200", "unit": "nM"}, {"measurement": "IC50", "setting": "[2]; [4]", "value": "1000 to 3000", "unit": "nM"}]}, {"smiles": "CCN1C(=O)[C@@H](NC(=O)c2cccc(C(F)(F)F)c2)[C@@H](C2CC2)c2c(C(=O)N3CCS(=O)(=O)C[C@@H]3C#N)nn(-c3ccccc3)c21", "note": "[Compound I-438, N-((4S,5S)-3-((S)-3-cyano-1,1-dioxidothiomorpholine-4-carbonyl)-4-cyclopropyl-7-ethyl-6-oxo-1-phenyl-4,5,6,7-tetrahydro-1H-pyrazolo[3,4-b]pyridin-5-yl)-3-(trifluoromethyl)benzamide]", "values": [{"measurement": "IC50", "setting": "[1]; TF-1, 3 h", "value": "≤ 100", "unit": "nM"}, {"measurement": "IC50", "setting": "[2]; [3]", "value": "≤ 200", "unit": "nM"}, {"measurement": "IC50", "setting": "[2]; [5]", "value": "≤ 200", "unit": "nM"}]}, {"smiles": "CCN1C(=O)[C@@H](NC(=O)c2cccc(C(F)(F)F)c2)[C@@H](c2ccc(F)cn2)c2c([C@@H](C)NC#N)nn(-c3ccccc3)c21", "note": "[Compound I-439]", "values": [{"measurement": "IC50", "setting": "[1]; TF-1, 3 h", "value": "≤ 100", "unit": "nM"}, {"measurement": "IC50", "setting": "[2]; [3]", "value": "≤ 200", "unit": "nM"}, {"measurement": "IC50", "setting": "[2]; [5]", "value": "≤ 200", "unit": "nM"}]}, {"smiles": "CCN1C(=O)[C@@H](NC(=O)c2cccc(C(F)(F)F)c2)[C@@H](C2CC2)c2c(C(=O)N3[C@H](C#N)C[C@@H]4C[C@@H]43)nn(C3CCOCC3)c21", "note": "[Compound I-441]", "values": [{"measurement": "IC50", "setting": "[1]; TF-1, 3 h", "value": "> 1000", "unit": "nM"}, {"measurement": "IC50", "setting": "[2]; [3]", "value": "200 to 1000", "unit": "nM"}, {"measurement": "IC50", "setting": "[2]; [4]", "value": "1000 to 3000", "unit": "nM"}]}, {"smiles": "CCN1C(=O)[C@@H](NC(=O)c2cccc(C(F)(F)F)c2)[C@@H](C2CC2)c2c(C(=O)N3[C@@H]4C[C@@H]4C[C@@H]3C#N)nn(C3CCOCC3)c21", "note": "[Compound I-442]", "values": [{"measurement": "IC50", "setting": "[1]; TF-1, 3 h", "value": "> 1000", "unit": "nM"}, {"measurement": "IC50", "setting": "[2]; [3]", "value": "200 to 1000", "unit": "nM"}, {"measurement": "IC50", "setting": "[2]; [4]", "value": "1000 to 3000", "unit": "nM"}]}, {"smiles": "CCN1C(=O)[C@@H](NC(=O)c2cccc3c2OCC3)[C@@H](C2CC2)c2c(C(=O)N3[C@H](C#N)C[C@H]4C[C@H]43)nn(C3CCOCC3)c21", "note": "[Compound I-445]", "values": [{"measurement": "IC50", "setting": "[1]", "value": "≤ 100", "unit": "nM"}, {"measurement": "IC50", "setting": "[2]; [3]", "value": "≤ 200", "unit": "nM"}, {"measurement": "IC50", "setting": "[2]; [5]", "value": "≤ 200", "unit": "nM"}]}, {"smiles": "CCN1C(=O)[C@@H](NC(=O)c2cccc3[nH]cnc23)[C@@H](C2CC2)c2c(C(=O)N3[C@H](C#N)C[C@H]4C[C@H]43)nn(C3CCOCC3)c21", "note": "[Compound I-446]", "values": [{"measurement": "IC50", "setting": "[1]; TF-1, 3 h", "value": "> 1000", "unit": "nM"}, {"measurement": "IC50", "setting": "[2]; [3]", "value": "1000 to 3000", "unit": "nM"}, {"measurement": "IC50", "setting": "[2]; [4]", "value": "1000 to 3000", "unit": "nM"}]}, {"smiles": "CCN1C(=O)[C@@H](NC(=O)c2cccc(C(F)(F)F)c2)[C@@H](c2ccc(F)cc2)c2c(C(=O)N3[C@H](C#N)C[C@@H]4C[C@@H]43)nn(-c3ccccc3)c21", "note": "[Compound I-450]", "values": [{"measurement": "IC50", "setting": "[1]; TF-1, 3 h", "value": "100 to 1000", "unit": "nM"}, {"measurement": "IC50", "setting": "[2]; [3]", "value": "1000 to 3000", "unit": "nM"}, {"measurement": "IC50", "setting": "[2]; [4]", "value": "1000 to 3000", "unit": "nM"}]}, {"smiles": "CCN1C(=O)[C@@H](NC(=O)c2nccc(C(F)(F)F)n2)[C@H](c2ccc(F)cc2)c2c(CNC(=O)CC#N)nn(-c3ccccc3)c21", "note": "[Compound I-452, N-((4R,5S)-3-((2-cyanoacetamido)methyl)-7-ethyl-4-(4-fluorophenyl)-6-oxo-1-phenyl-4,5,6,7-tetrahydro-1H-pyrazolo[3,4-b]pyridin-5-yl)-4-(trifluoromethyl)pyrimidine-2-carboxamide]", "values": [{"measurement": "IC50", "setting": "[1]; TF-1, 3 h", "value": "> 1000", "unit": "nM"}, {"measurement": "IC50", "setting": "[2]; [3]", "value": "1000 to 3000", "unit": "nM"}, {"measurement": "IC50", "setting": "[2]; [4]", "value": "1000 to 3000", "unit": "nM"}]}, {"smiles": "CCN1C(=O)[C@H](NC(=O)c2cccc(C(F)(F)F)c2)[C@H](c2ccc(F)cc2)c2c(C(=O)N3CCNC[C@H]3C#N)nn(-c3ccccc3)c21", "note": "[Compound I-453]", "values": [{"measurement": "IC50", "setting": "[1]; TF-1, 3 h", "value": "> 1000", "unit": "nM"}, {"measurement": "IC50", "setting": "[2]; [3]", "value": "200 to 1000", "unit": "nM"}, {"measurement": "IC50", "setting": "[2]; [4]", "value": "1000 to 3000", "unit": "nM"}]}, {"smiles": "CCN1C(=O)[C@@H](NC(=O)c2cccc(C(F)(F)F)c2)[C@@H](C2CC2)c2c(C(=O)N3CCC[C@H]3C#N)nn(C3CC3)c21", "note": "[Compound I-454]", "values": [{"measurement": "IC50", "setting": "[1]; TF-1, 3 h", "value": "≤ 100", "unit": "nM"}, {"measurement": "IC50", "setting": "[2]; [3]", "value": "200 to 1000", "unit": "nM"}, {"measurement": "IC50", "setting": "[2]; [4]", "value": "1000 to 3000", "unit": "nM"}]}, {"smiles": "CCCn1nc(C(=O)N(CC#N)C2CC2)c2c1N(CC)C(=O)[C@H](NC(=O)c1cccc(C(F)(F)F)c1)[C@@H]2C1CC1", "note": "[Compound I-455]", "values": [{"measurement": "IC50", "setting": "[1]; TF-1, 3 h", "value": "> 1000", "unit": "nM"}, {"measurement": "IC50", "setting": "[2]; [3]", "value": "1000 to 3000", "unit": "nM"}, {"measurement": "IC50", "setting": "[2]; [4]", "value": "1000 to 3000", "unit": "nM"}]}, {"smiles": "CCN1C(=O)[C@H](NC(=O)c2cccc(C(F)(F)F)c2)[C@H](c2ccc(F)cc2)c2c(C(=O)N3CC[C@@H]3C#N)nn(-c3ccccc3)c21", "note": "[Compound I-457]", "values": [{"measurement": "IC50", "setting": "[1]; TF-1, 3 h", "value": "> 1000", "unit": "nM"}, {"measurement": "IC50", "setting": "[2]; [3]", "value": "1000 to 3000", "unit": "nM"}, {"measurement": "IC50", "setting": "[2]; [4]", "value": "1000 to 3000", "unit": "nM"}]}, {"smiles": "CCN1C(=O)[C@@H](NC(=O)c2nccc(C(F)(F)F)n2)[C@H](c2ccc(F)cc2)c2c(CNC(=O)/C=C/C(=O)N(C)C)nn(-c3ccccc3)c21", "note": "[Compound I-460]", "values": [{"measurement": "IC50", "setting": "[1]; TF-1, 3 h", "value": "> 1000", "unit": "nM"}, {"measurement": "IC50", "setting": "[2]; [3]", "value": "200 to 1000", "unit": "nM"}, {"measurement": "IC50", "setting": "[2]; [4]", "value": "200 to 1000", "unit": "nM"}]}, {"smiles": "CCN1C(=O)[C@H](NC(=O)c2cccc(C(F)(F)F)c2)[C@H](c2ccc(F)cc2)c2c(C(=O)N3[C@H](C#N)C[C@@H]4C[C@@H]43)nn(-c3ccccc3)c21", "note": "[Compound I-463]", "values": [{"measurement": "IC50", "setting": "[1]; TF-1, 3 h", "value": "> 1000", "unit": "nM"}, {"measurement": "IC50", "setting": "[2]; [3]", "value": "1000 to 3000", "unit": "nM"}, {"measurement": "IC50", "setting": "[2]; [4]", "value": "1000 to 3000", "unit": "nM"}]}, {"smiles": "CCN1C(=O)[C@@H](NC(=O)c2cccc(C(F)(F)F)c2)[C@@H](c2ccc(F)cc2)c2c(C(=O)N3CS(=O)(=O)C[C@H]3C#N)nn(-c3ccccc3)c21", "note": "[Compound I-465]", "values": [{"measurement": "IC50", "setting": "[1]; TF-1, 3 h", "value": "≤ 100", "unit": "nM"}, {"measurement": "IC50", "setting": "[2]; [3]", "value": "≤ 200", "unit": "nM"}, {"measurement": "IC50", "setting": "[2]; [5]", "value": "≤ 200", "unit": "nM"}]}]}
